Results on 51 molecules are retold here after PubChem BioAssay AID651885 (Broad Institute, 2012).

By IC50 is commonly meant the concentration that inhibits the measured activity by half. Usually IC90 stands for the concentration needed for an effect of 90%. What is called IC99 is the concentration needed for an effect of 99%. Read a low IC99 as greater potency.

For assay [1], the system named is BESM host cells (bovine embryo skeletal muscle), cytotoxicity. Put plainly: anti-trypanosomal activity in BESM host cells – imaging, CA-I/72 strain, bovine embryo skeletal muscle, dry powder, dose response (AID 651885). The following applies: T. cruzi CA-I/72 amastigotes in BESM cells, imaging, 72 h; measured here: host BESM cell toxicity.
Assay [2] deals with T. cruzi CA-I/72 amastigotes in BESM cells, imaging, 72 h. Described as above. To be noted: for IC90: measured here: parasite IC90, test 4; for IC99: measured here: parasite IC99, test 4.

Turning to `C[C@@H]1CN([C@@H](C)CO)C(=O)c2cccc(NC(=O)c3ccncc3)c2O[C@H]1CN(C)C`, the IC50 in assay [1] was > 20 µM.

As to `CNC[C@@H]1Oc2c(NC(=O)c3ccncc3)cccc2C(=O)N(C(C)C)C[C@H]1C`, the IC50 in assay [1] was > 20 µM.

Regarding `C[C@@H]1CN([C@@H](C)CO)C(=O)c2cccc(NC(=O)c3ccncc3)c2O[C@H]1CN(C)Cc1cccc(Cl)c1`, the IC50 in assay [1] was > 20 µM.

In the case of `CC(C)N1C[C@H](C)[C@@H](CN(C)C(=O)OC(C)(C)C)Oc2c(C#N)cccc2C1=O`, the IC50 in assay [1] was > 20 µM.

Take `C[C@@H]1CN([C@@H](C)CO)C(=O)c2cccc(NC(=O)c3cnccn3)c2O[C@H]1CN(C)Cc1ccc(Oc2ccccc2)cc1`: the IC50 in assay [1] is > 20 µM.

As for `C[C@@H]1CN([C@@H](C)CO)C(=O)c2cc(-c3cncnc3)cnc2O[C@H]1CN(C)Cc1ccc(Oc2ccccc2)cc1`, the IC50 in assay [1] was > 20 µM.

Consider `C[C@@H]1CN([C@H](C)CO)C(=O)c2cccc(NC(=O)c3ccncc3)c2O[C@@H]1CN(C)Cc1ccc(Oc2ccccc2)cc1`, for which the IC50 in assay [1] is > 20 µM. In assay [2], this molecule came in with an IC90 of 30.7 µM and an IC99 of 238 µM.

Regarding `C[C@@H]1CN([C@H](C)CO)C(=O)c2cccc(NC(=O)c3ccncc3)c2O[C@H]1CN(C)Cc1ccccc1`, the IC50 in assay [1] was > 20 µM.

On to `C[C@@H]1CN([C@H](C)CO)C(=O)c2cccc(NC(=O)c3ccncc3)c2O[C@H]1CN(C)Cc1ccc(Oc2ccccc2)cc1`, for which, in assay [1], the IC50 is > 20 µM. In assay [2], this molecule showed an IC90 of 0.45 µM and an IC99 of 4.95 µM.

For the molecule `C[C@H](CO)N1C[C@H](C)[C@H](CN(C)Cc2ccc(Oc3ccccc3)cc2)Oc2c(NC(=O)c3ccncc3)cccc2C1=O`, the concentration for half-maximal inhibition (IC50) in assay [1] is > 20 µM.

Take `CC(C)N1C[C@H](C)[C@@H](CN(C)Cc2cccc(Cl)c2)Oc2c(NC(=O)c3ccncc3)cccc2C1=O`: in assay [1], the concentration for half-maximal inhibition (IC50) was 19.1 µM.

With `CC(C)N1C[C@H](C)[C@@H](CN(C)C(=O)OC(C)(C)C)Oc2c(NC(=O)c3cccnc3)cccc2C1=O`, in assay [1], the IC50 is > 20 µM.

For `C[C@H](CO)N1C[C@H](C)[C@@H](CN(C)Cc2ccc(Oc3ccccc3)cc2)Oc2c(NC(=O)c3ccncc3)cccc2C1=O`, the IC50 in assay [1] is > 20 µM.

For the molecule `CC(C)N1C[C@H](C)[C@@H](CN(C)C(=O)OC(C)(C)C)Oc2c(C(=O)Nc3ccncc3)cccc2C1=O`, the concentration for half-maximal inhibition (IC50) in assay [1] is > 20 µM.

For the molecule `C[C@@H]1CN([C@@H](C)CO)C(=O)c2cccc(NC(=O)c3ccncc3)c2O[C@H]1CN(C)Cc1ccc(-c2ccccc2)cc1`, the IC50 in assay [1] was > 20 µM.

`C[C@@H]1CN([C@@H](C)CO)C(=O)c2cccc(NC(=O)c3ccncc3)c2O[C@H]1CN(C)Cc1ccccc1Cl`: in assay [1], the IC50 was > 20 µM.

As for `C[C@@H]1CN([C@@H](C)CO)C(=O)c2cccc(NC(=O)c3ccncc3)c2O[C@H]1CN(C)Cc1ccc2c(c1)OCO2`, the IC50 in assay [1] was > 20 µM. In assay [2], this molecule yielded an IC90 of 0.921 µM and an IC99 of 7.92 µM.

In the case of `CC(C)N1C[C@H](C)[C@@H](CN(C)C(=O)OC(C)(C)C)Oc2c(C(=O)O)cccc2C1=O`, the IC50 in assay [1] is > 20 µM.

`COc1ccc(CN(C)C[C@H]2Oc3c(NC(=O)c4ccncc4)cccc3C(=O)N([C@@H](C)CO)C[C@@H]2C)cc1`: the IC50 in assay [1] is 15.3 µM.

In turn, `CC(C)N1C[C@H](C)[C@@H](CN(C)Cc2ccc(Oc3ccccc3)cc2)Oc2c(NC(=O)c3ccccc3)cccc2C1=O` returned an IC50 in assay [1] of 16.1 µM.

On to `CC(C)N1C[C@H](C)[C@@H](CN(C)Cc2ccc(Oc3ccccc3)cc2)Oc2c(NC(=O)c3ccncc3)cccc2C1=O`, for which the IC50 in assay [1] is > 20 µM.

Consider `CC(C)N1C[C@H](C)[C@@H](CN(C)Cc2ccccc2Cl)Oc2c(NC(=O)c3ccncc3)cccc2C1=O`, for which the IC50 in assay [1] is > 20 µM.

Take `C[C@@H]1CN([C@@H](C)CO)C(=O)c2cccc(NC(=O)c3ccncc3)c2O[C@H]1CN(C)CC1CCCCC1`: in assay [1], the IC50 was > 20 µM. Besides, in assay [2], the IC90 is 6.03 µM and the IC99 turned out to be 63.4 µM.

In turn, `C[C@@H]1CN([C@@H](C)CO)C(=O)c2cc(-c3ccncc3)cnc2O[C@H]1CN(C)Cc1ccc(Oc2ccccc2)cc1` registered an IC50 in assay [1] of 5 µM.

As to `CC(C)N1C[C@H](C)[C@@H](CN(C)Cc2ccc(Cl)cc2)Oc2c(NC(=O)c3ccncc3)cccc2C1=O`, in assay [1], the IC50 is > 20 µM.

With `COc1ccc(CN(C)C[C@@H]2Oc3c(NC(=O)c4ccncc4)cccc3C(=O)N([C@@H](C)CO)C[C@H]2C)cc1`, in assay [1], the IC50 is > 20 µM. Further, in assay [2], the IC90 was determined as 1.58 µM and the IC99 came to 15.9 µM.

With `CC(C)N1C[C@H](C)[C@@H](CN(C)Cc2ccccc2)Oc2c(NC(=O)c3ccncc3)cccc2C1=O`, in assay [1], the IC50 is > 20 µM.

Turning to `C[C@H]1CN([C@@H](C)CO)C(=O)c2cccc(NC(=O)c3ccncc3)c2O[C@@H]1CN(C)Cc1ccccc1`, in assay [1], the IC50 is > 20 µM.

Consider `C[C@@H]1CN([C@@H](C)CO)C(=O)c2cccc(NC(=O)c3ccncc3)c2O[C@H]1CN(C)Cc1ccc(C(=O)O)cc1`, for which the IC50 in assay [1] was > 20 µM.

With `C[C@@H]1CN([C@@H](C)CO)C(=O)c2cccc(NC(=O)c3ccncc3)c2O[C@H]1CN(C)Cc1ccc(Oc2ccccc2)cc1`, in assay [1], the IC50 was > 20 µM. In assay [2], the IC50 was 0.011 µM, the concentration for an effect of 90% (IC90) is 0.108 µM and the IC99 is 1.19 µM.

As for `Cc1cc(C(=O)Nc2cccc3c2O[C@@H](CN(C)Cc2ccc(Oc4ccccc4)cc2)[C@H](C)CN([C@@H](C)CO)C3=O)n(C)n1`, the IC50 in assay [1] is > 20 µM.

Take `CC(C)N(C)C(=O)c1cccc(NC(=O)c2ccncc2)c1OCCCN(C)Cc1ccc(Cl)cc1`: the IC50 in assay [1] was > 20 µM.

Take `C[C@H]1CN([C@@H](C)CO)C(=O)c2cccc(NC(=O)c3ccncc3)c2O[C@@H]1CN(C)Cc1ccc(Cl)c(Cl)c1`: the IC50 in assay [1] was > 20 µM.

In the case of `C[C@@H]1CN([C@H](C)CO)C(=O)c2cccc(NC(=O)c3ccncc3)c2O[C@H]1CN(C)Cc1ccc2c(c1)OCO2`, the IC50 in assay [1] was > 20 µM.

As to `COc1ccc(CCN(C)C(=O)C2CCCN(Cc3ccc(OC)c(OC)c3)C2)cc1OC` (stereo not drawn), in assay [1], the IC50 is > 20 µM.

With `CC(C)N1C[C@H](C)[C@@H](CN(C)C(=O)OC(C)(C)C)Oc2c(NC(=O)c3ccccc3)cccc2C1=O`, in assay [1], the IC50 is > 20 µM.

Turning to `C[C@H]1CN([C@@H](C)CO)C(=O)c2cccc(NC(=O)c3ccncc3)c2O[C@@H]1CN(C)Cc1ccc(C(F)(F)F)cc1`, in assay [1], the IC50 is > 20 µM.

As for `C[C@H]1CN([C@@H](C)CO)C(=O)c2cccc(NC(=O)c3ccncc3)c2O[C@H]1CN(C)Cc1ccc(Oc2ccccc2)cc1`, the IC50 in assay [1] is > 20 µM.

Consider `CC(C)N1C[C@H](C)[C@@H](CN(C)C(=O)OC(C)(C)C)Oc2c(NC(=O)c3ccncc3)cccc2C1=O`, for which the IC50 in assay [1] is > 20 µM.

Turning to `C[C@H]1CN([C@@H](C)CO)C(=O)c2cccc(NC(=O)c3ccncc3)c2O[C@@H]1CN(C)Cc1ccncc1`, the 50% inhibitory concentration (IC50) in assay [1] was > 20 µM.

In the case of `C[C@@H]1CN([C@H](C)CO)C(=O)c2cccc(NC(=O)c3ccncc3)c2O[C@H]1CN(C)Cc1ccc(C(F)(F)F)cc1`, the IC50 in assay [1] was > 20 µM. In assay [2], this molecule showed an IC90 of 0.472 µM and an IC99 of 4.75 µM.

Regarding `C[C@H]1CN([C@@H](C)CO)C(=O)c2cccc(NC(=O)c3ccncc3)c2O[C@@H]1CN(C)Cc1ccc(C(=O)O)cc1`, the IC50 in assay [1] was > 20 µM.

In the case of `C[C@@H]1CN([C@@H](C)CO)C(=O)c2cc(Br)cnc2O[C@H]1CN(C)Cc1ccc2c(c1)OCO2`, in assay [1], the half-inhibitory concentration (IC50) was > 20 µM.

Consider `C[C@@H]1CN([C@@H](C)CO)C(=O)c2cc(-c3cccnc3)cnc2O[C@H]1CN(C)Cc1ccc(Oc2ccccc2)cc1`, for which, in assay [1], the IC50 was > 20 µM.

In the case of `C[C@@H]1CN([C@H](C)CO)C(=O)c2cccc(NC(=O)c3ccncc3)c2O[C@H]1CN(C)CC1CCCCC1`, the IC50 in assay [1] was > 20 µM. In assay [2], this molecule yielded an IC90 of 28.5 µM and an IC99 of 158 µM.

Turning to `C[C@H]1CN([C@@H](C)CO)C(=O)c2cccc(NC(=O)c3ccncc3)c2O[C@@H]1CN(C)Cc1ccc(Oc2ccccc2)cc1`, the IC50 in assay [1] was > 20 µM.

Regarding `CCCn1ncc(CN2CCCC(C(=O)c3cccc(OC(C)C)c3)C2)c1C` (stereo not drawn), the IC50 in assay [1] was > 20 µM.

Take `C[C@@H]1CN([C@@H](C)CO)C(=O)c2cccc(NC(=O)c3ccncc3)c2O[C@@H]1CN(C)Cc1ccc(Oc2ccccc2)cc1`: the IC50 in assay [1] is > 20 µM.

Turning to `C[C@H]1CN([C@@H](C)CO)C(=O)c2cccc(NC(=O)c3ccncc3)c2O[C@@H]1CN(C)Cc1ccc(C(=O)Nc2ccccc2N)cc1`, in assay [1], the half-maximal inhibitory concentration (IC50) is > 20 µM.

Regarding `C[C@@H]1CN([C@@H](C)CO)C(=O)c2cccc(NC(=O)c3ccncc3)c2O[C@H]1CN(C)Cc1ccc(Cl)cc1`, the IC50 in assay [1] was > 20 µM.

As to `CNC[C@H]1Oc2c(NC(=O)c3ccccc3)cccc2C(=O)N(C(C)C)C[C@@H]1C`, the IC50 in assay [1] was > 20 µM.
